Experimental data: US8343458B2, “Probes for in vivo targeting of active cysteine proteases” (The Board of Trustees of the Leland Stanford Junior …, priority 2008, dated 2013)
“And” between values parts separate entries of the source, which are not always exact repeats. Equal entries are not always repeated.

Key:
[1] = test system: MDA-MB-435 tumors; test: Biodistribution in nude mice bearing subcutaneous MDA-MB-435 tumors; assay type: in vivo, mouse; details: for Biodistribution: Blood / Biodistribution: Bone / Biodistribution: Brain / Biodistribution: Heart / Biodistribution: Intestines / Biodistribution: Kidney / Biodistribution: Liver / Biodistribution: Lung / Biodistribution: Muscle / Biodistribution: Pancreas / Biodistribution: Spleen / Biodistribution: Stomach / Biodistribution: Tumor / Tumor/Blood ratio / Tumor/Muscle ratio: MDA-MB-435 tumor mice, i.v. 740 kBq
Protocol: All animal studies were carried out in compliance with Federal and local institutional rules for the conduct of animal experimentation. Female athymic nude mice (nu/nu) were obtained from Charles River Laboratories (Boston, Mass.) at 7-8 weeks old and kept under sterile conditions. The nude mice were inoculated subcutaneously in the right shoulder with 2×10^6 cultured C2C12/Ras cells or 5×10^6 MDA-MB-435 cells. When the tumors reach 0.5-0.8 cm in diameter, the tumor bearing mice were subjected to in vivo biodistribution studies. For biodistribution studies, the mice bearing C2C12/Ras or MDA-MB-435 tumor xenografts (n=3 for each group) were injected with 740 KBq (20 μCi) of ^64Cu labeled tracer through the tail vein and sacrificed at different time points post injection (p.i.). Tumor and normal tissues of interest were removed and weighed, and their radioactivity was measured in a gamma-counter. The radioactivity uptake in the tumor and normal tissues was expressed as a percentage of the injected radioactive dose per gram of tissue (% ID/g).
We next examined the overall biodistribution of ^64Cu-Z-FK(DOTA)-AOMK using athymic nude mice carrying subcutaneously grafted C2C12/Ras and MDA-MB-435 tumors. […] Importantly, we observed rapid accumulation of radioactivity in the C2C12/Ras tumors expressing high levels of cysteine cathepsins (0.35±0.13% ID/g at 0.5 h p.i.). This activity remained in the tumors resulting in an uptake of 0.27±0.05% ID/g at 24 h p.i. For the MDA-MB-435 tumors with lower cysteine cathepsin expression, tumor uptake was approximately 2 fold lower at each time point relative to the C2C12/Ras tumors (P<0.05). […] The highest radioactivity was found in the liver due to high endogenous expression of various cysteine cathepsins. Moderate renal accumulation was also observed at all times in both tumor models.
Data are expressed as the percentage administered activity (injected dose) per gram of tissue (% ID/g) after intravenous injection of 740 kBq (20 μCi) of ^64Cu-Z-FK(DOTA)-AOMK at 0.5, 2, and 24 h pi (n=3). Significant lower tumor uptake and tumor/blood, tumor/muscle ratio in MDA-MB-435 breast cancer (P<0.05) were observed.

[2] = Octanol/water partition coefficient; assay type: physicochemical; details: octanol / PBS pH 7.4, repeated 3 times
Protocol: Octanol/water partition coefficient. To determine the lipophilicity of ^64Cu-Z-FK(DOTA)-AOMK, approximately 370 kBq of ^64Cu-labeled complex in 500 μl of PBS (pH 7.4) was added to 500 μl of octanol in an eppendorf microcentrifuge tube. The resulting biphasic system was mixed vigorously for 10 min and left at room temperature for another 60 min. The two phases were then separated by centrifugation at 2000 g for 5 min (model 5415R Eppendorf microcentrifuge; Brinkman, Westbury, N.Y.). From each layer, an aliquot of 100 μl was removed and counted in a γ-counter (Packard Instruments). The partition coefficient (log P) was then calculated as a ratio of counts in the octanol fraction to the counts in the water fraction. The experiment was repeated 3 times. The lipophilicity of the probe affects its in vivo pharmacokinetics, and should be modest (˜0), with hydrophobic and hydrophilic groups present. For further details, see Lin et al., “Role of Pharmacokinetics and Metabolism in Drug Discovery and Development,” Pharmacological Reviews, Vol. 49, Issue 4, 403-449, December 1997.

[3] = test system: cathepsins B and L; test: Labeling of intact tumor cells (SDS-PAGE, gel scan); assay type: cell-based, mouse (C2C12/Ras), human (MDA-MB-435); details: C2C12/Ras and MDA-MB-435 cells, 555 KBq probe in culture medium for 2 h
From the text: FIG. 2 is a series of figures which, taken together, show the structure and function of representative in vivo probes. FIG. 2A is a schematic drawing of a chelator—conjugated probe, illustrating several component moieties. FIGS. 2B and 2C are gels showing expression and activity of enzyme targets of such probe, with a radionuclide label attached to the illustrated structure, showing the expression and activity of CB in a mouse myoblast cell line C2C12Ras and human breast cancer cell line MDA-MB-435. […] Cells were pretreated with JPM-OEt (50 μM) (+) or with control DMSO (0.1%) (−) for 2 h and labeled by addition of ^64Cu-Z-FK(DOTA)-AOMK (555 KBq, 15 μCi) to culture medium for 2 h. Cells were collected, lysed and analyzed after SDS-PAGE. The labeled proteases were visualized by scanning of the gel with a Typhoon 9410 imager.
Before applying the radiolabel probe in vivo we first tested the ability of the probe to label multiple tumor cell lines grown in vitro. We initially examined the labeling of the human breast cancer cell line MBA-MB-435 and a mouse myoblastoma cell line that had been transformed by overexpression of the ras oncogene (C2C12/Ras). Both of these cell lines were used for in vivo imaging studies with the NIRF-labeled cysteine cathepsin probes. To confirm earlier studies of these cells using the NIRF probes we labeled them with general Cy5-labeled probe GB123 (FIG. 1C). […] Labeling of the same cells with ^64Cu-Z-FK(DOTA)-AOMK confirmed that the DOTA produced a similar labeling pattern to that observed for the NIRF probe GB123.
C2C12/Ras and MDA-MB-435 cells (0.25 M each well) were seeded in a six-well plate one day before the study. Cells were pretreated with the general papain family protease inhibitor JPM-OEt (50 μM^28) or with control DMSO (0.1%) for 1 h and labeled by addition of ^64Cu-Z-FK(DOTA)-AOMK (555 KBq, 15 μCi) to culture medium for 2 h. Cells was then washed with PBS and lysed. Equal amounts of protein per lane were separated by 12% SDS-PAGE. […] The labeled bands were quantified with ImageJ 1.36b (public domain software from National Institute of Health).

SMILES: Cc1cccc(C)c1C(=O)OCC(=O)[C@H](CCCCNC(=O)CN1CCN(CC(=O)[O-])CCN(CC(=O)O)CCN(CC(=O)[O-])CC1)NC(=O)[C@H](Cc1ccccc1)NC(=O)OCc1ccccc1.[64Cu+2] [^64Cu-Z-FK(DOTA)-AOMK]
- Biodistribution: Blood ([1]; 2 h p.i.): 0.29 ± 0.01 % ID/g
- Biodistribution: Bone ([1]; 2 h p.i.): 0.18 ± 0.06 % ID/g
- Biodistribution: Brain ([1]; 2 h p.i.): 0.04 ± 0.01 % ID/g
- Biodistribution: Heart ([1]; 2 h p.i.): 0.43 ± 0.09 % ID/g
- Biodistribution: Intestines ([1]; 2 h p.i.): 1.95 ± 1.24 % ID/g
- Biodistribution: Kidney ([1]; 2 h p.i.): 1.11 ± 0.05 % ID/g
- Biodistribution: Liver ([1]; 2 h p.i.): 2.64 ± 0.08 % ID/g
- Biodistribution: Lung ([1]; 2 h p.i.): 0.72 ± 0.08 % ID/g
- Biodistribution: Muscle ([1]; 2 h p.i.): 0.06 ± 0.00 % ID/g
- Biodistribution: Pancreas ([1]; 2 h p.i.): 0.25 ± 0.05 % ID/g
- Biodistribution: Spleen ([1]; 2 h p.i.): 0.31 ± 0.05 % ID/g
- Biodistribution: Stomach ([1]; 2 h p.i.): 0.45 ± 0.07 % ID/g
- Biodistribution: Tumor ([1]; 2 h p.i.): 0.18 ± 0.00 % ID/g
- Tumor/Blood ratio ([1]; 2 h p.i.): 0.61 and 0.61 ± 0.02
- Tumor/Muscle ratio ([1]; 2 h p.i.): 3.03 and 3.03 ± 0.20
- Biodistribution: Blood ([1]; 24 h p.i.): 0.28 ± 0.13 % ID/g
- Biodistribution: Bone ([1]; 24 h p.i.): 0.20 ± 0.20 % ID/g
- Biodistribution: Brain ([1]; 24 h p.i.): 0.05 ± 0.01 % ID/g
- Biodistribution: Heart ([1]; 24 h p.i.): 0.42 ± 0.15 % ID/g
- Biodistribution: Intestines ([1]; 24 h p.i.): 0.35 ± 0.08 % ID/g
- Biodistribution: Kidney ([1]; 24 h p.i.): 0.63 ± 0.08 % ID/g
- Biodistribution: Liver ([1]; 24 h p.i.): 1.37 ± 0.19 % ID/g
- Biodistribution: Lung ([1]; 24 h p.i.): 0.47 ± 0.08 % ID/g
- Biodistribution: Muscle ([1]; 24 h p.i.): 0.06 ± 0.02 % ID/g
- Biodistribution: Pancreas ([1]; 24 h p.i.): 0.18 ± 0.11 % ID/g
- Biodistribution: Spleen ([1]; 24 h p.i.): 0.31 ± 0.21 % ID/g
- Biodistribution: Stomach ([1]; 24 h p.i.): 0.34 ± 0.29 % ID/g
- Biodistribution: Tumor ([1]; 24 h p.i.): 0.14 ± 0.05 % ID/g
- Tumor/Blood ratio ([1]; 24 h p.i.): 0.54 ± 0.12
- Tumor/Muscle ratio ([1]; 24 h p.i.): 2.21 ± 0.34
- Tumor uptake in MDA-MB-435 tumors, fold lower relative to C2C12/Ras tumors ([1]; at each time point (2 h, 24 h), P<0.05): approximately 2 fold
- log P (octanol-water partition coefficient) [2]: −0.10±0.04
- Labeling of active cathepsins in intact cells [3]: efficiently modifies active cathepsins B and L
